Organism: Rattus norvegicus
Experiment: DrugMatrix - Regimen: Daily Repeat
Format: toxicity, organism-based, Sprague-Dawley
Design: regimen Daily Repeat, gender Male, age 6-8 weeks
Conditions: in vivo, sc, 0.4 mg/kg, route subcutaneous, dose level Low, […]; for ABSOLUTE BASOPHIL / ABSOLUTE EOSINOPHIL / ABSOLUTE LYMPHOCYTE / ABSOLUTE MONOCYTE / ABSOLUTE SEGMENTED NEUTROPHIL / BASOPHIL / EOSINOPHIL / ERYTHROCYTE COUNT / HEMATOCRIT / HEMOGLOBIN / LEUKOCYTE COUNT / LYMPHOCYTE / MEAN CORPUSCULAR HEMOGLOBIN / MEAN CORPUSCULAR HEMOGLOBIN CONCENTRATION / MEAN CORPUSCULAR VOLUME / MONOCYTE / NEUTROPHIL / NUCLEATED RED BLOOD CELLS / PLATELET COUNT: tissue Blood; for ALANINE AMINOTRANSFERASE / ALBUMIN / ALKALINE PHOSPHATASE / ASPARTATE AMINOTRANSFERASE / BLOOD UREA NITROGEN / CARBON DIOXIDE / CHLORIDE / CHOLESTEROL / CREATINE PHOSPHOKINASE / CREATININE / GLUCOSE / LACTATE DEHYDROGENASE / LIPASE / PHOSPHORUS / POTASSIUM / SODIUM / TOTAL BILIRUBIN / TOTAL PROTEIN / URIC ACID: tissue Plasma

COc1cc([C@@H]2c3cc4c(cc3[C@H](O)[C@H]3COC(=O)[C@H]23)OCO4)cc(OC)c1OC [PODOFILOX]
ABSOLUTE BASOPHIL (72 h, time 3 day): 0 CELLS/uL
ABSOLUTE EOSINOPHIL (72 h, time 3 day): 46.67 CELLS/uL
ABSOLUTE LYMPHOCYTE (72 h, time 3 day): 10326.67 CELLS/uL
ABSOLUTE MONOCYTE (72 h, time 3 day): 246 CELLS/uL
ABSOLUTE SEGMENTED NEUTROPHIL (72 h, time 3 day): 1114 CELLS/uL
BASOPHIL (72 h, time 3 day): 0%
EOSINOPHIL (72 h, time 3 day): 0.33%
ERYTHROCYTE COUNT (72 h, time 3 day): 5.36 x10E6/uL
HEMATOCRIT (72 h, time 3 day): 33.43%
HEMOGLOBIN (72 h, time 3 day): 12.37 G/DL
LEUKOCYTE COUNT (72 h, time 3 day): 11.73 x10E3/uL
LYMPHOCYTE (72 h, time 3 day): 88.33%
MEAN CORPUSCULAR HEMOGLOBIN (72 h, time 3 day): 23.07 pg
MEAN CORPUSCULAR HEMOGLOBIN CONCENTRATION (72 h, time 3 day): 37 G/DL
MEAN CORPUSCULAR VOLUME (72 h, time 3 day): 62.43 fL
MONOCYTE (72 h, time 3 day): 2%
NEUTROPHIL (72 h, time 3 day): 9.33%
NUCLEATED RED BLOOD CELLS (72 h, time 3 day): 0 /100WBC
PLATELET COUNT (72 h, time 3 day): 1280.67 x10E3/uL
ALANINE AMINOTRANSFERASE (72 h, time 3 day): 44.33 u/L
ALBUMIN (72 h, time 3 day): 3.33 G/DL
ALKALINE PHOSPHATASE (72 h, time 3 day): 320.67 u/L
ASPARTATE AMINOTRANSFERASE (72 h, time 3 day): 77.67 u/L
BLOOD UREA NITROGEN (72 h, time 3 day): 16.33 mg/dL
CARBON DIOXIDE (72 h, time 3 day): 27.33 mmol/L
CHLORIDE (72 h, time 3 day): 104.67 MEQ/L
CHOLESTEROL (72 h, time 3 day): 67.33 mg/dL
CREATINE PHOSPHOKINASE (72 h, time 3 day): 222.67 u/L
CREATININE (72 h, time 3 day): 0.2 mg/dL
GLUCOSE (72 h, time 3 day): 162 mg/dL
LACTATE DEHYDROGENASE (72 h, time 3 day): 146.67 u/L
LIPASE (72 h, time 3 day): 8 u/L
PHOSPHORUS (72 h, time 3 day): 12.87 mg/dL
POTASSIUM (72 h, time 3 day): 6.48 MEQ/L
SODIUM (72 h, time 3 day): 146.23 MEQ/L
TOTAL BILIRUBIN (72 h, time 3 day): 0.2 mg/dL
TOTAL PROTEIN (72 h, time 3 day): 5.23 G/DL
URIC ACID (72 h, time 3 day): 1.53 mg/dL
ABSOLUTE BASOPHIL (120 h, time 5 day): 0 CELLS/uL
ABSOLUTE EOSINOPHIL (120 h, time 5 day): 0 CELLS/uL
ABSOLUTE LYMPHOCYTE (120 h, time 5 day): 4413.33 CELLS/uL
ABSOLUTE MONOCYTE (120 h, time 5 day): 17.67 CELLS/uL
ABSOLUTE SEGMENTED NEUTROPHIL (120 h, time 5 day): 1569 CELLS/uL
BASOPHIL (120 h, time 5 day): 0%
EOSINOPHIL (120 h, time 5 day): 0%
ERYTHROCYTE COUNT (120 h, time 5 day): 5.41 x10E6/uL
HEMATOCRIT (120 h, time 5 day): 33.67%
HEMOGLOBIN (120 h, time 5 day): 12.57 G/DL
LEUKOCYTE COUNT (120 h, time 5 day): 6 x10E3/uL
LYMPHOCYTE (120 h, time 5 day): 73.67%
MEAN CORPUSCULAR HEMOGLOBIN (120 h, time 5 day): 23.23 pg
MEAN CORPUSCULAR HEMOGLOBIN CONCENTRATION (120 h, time 5 day): 37.33 G/DL
MEAN CORPUSCULAR VOLUME (120 h, time 5 day): 62.3 fL
MONOCYTE (120 h, time 5 day): 0.33%
NEUTROPHIL (120 h, time 5 day): 26%
NUCLEATED RED BLOOD CELLS (120 h, time 5 day): 0.67 /100WBC
PLATELET COUNT (120 h, time 5 day): 1853.33 x10E3/uL
ALANINE AMINOTRANSFERASE (120 h, time 5 day): 44.33 u/L
ALBUMIN (120 h, time 5 day): 4.03 G/DL
ALKALINE PHOSPHATASE (120 h, time 5 day): 296.33 u/L
ASPARTATE AMINOTRANSFERASE (120 h, time 5 day): 117 u/L
BLOOD UREA NITROGEN (120 h, time 5 day): 19.33 mg/dL
CARBON DIOXIDE (120 h, time 5 day): 26 mmol/L
CHLORIDE (120 h, time 5 day): 105.67 MEQ/L
CHOLESTEROL (120 h, time 5 day): 82.67 mg/dL
CREATINE PHOSPHOKINASE (120 h, time 5 day): 843.33 u/L
CREATININE (120 h, time 5 day): 0.2 mg/dL
GLUCOSE (120 h, time 5 day): 187.33 mg/dL
LACTATE DEHYDROGENASE (120 h, time 5 day): 167.67 u/L
LIPASE (120 h, time 5 day): 8.67 u/L
PHOSPHORUS (120 h, time 5 day): 11.4 mg/dL
POTASSIUM (120 h, time 5 day): 6.97 MEQ/L
SODIUM (120 h, time 5 day): 148.4 MEQ/L
TOTAL BILIRUBIN (120 h, time 5 day): 0.1 mg/dL
TOTAL PROTEIN (120 h, time 5 day): 6.7 G/DL
URIC ACID (120 h, time 5 day): 2.73 mg/dL
